What was measured:
Experiment in all cases: radiometric filter-binding kinase assay
NEK2 (human) = NEK2 (human) (UniProt P51955)
MAPK10 (human) = MAPK10 (human) (UniProt P53779)
TBK1 (human) = TBK1 (human) (UniProt Q9UHD2)
GSK3B (human) = GSK3B (human) (UniProt P49841)
PIM3 (human) = PIM3 (human) (UniProt Q86V86)
[1] = test system: AKT2 (human), P31751 [S474D]
DYRK3 (human) = DYRK3 (human) (UniProt O43781)
ROCK2 (rat) = conditions: accession and sequence are those of the human protein
[2] = test system: AKT1 (human), P31749 [S473D]
Sequence of AKT1 (human), P31749 [S473D] (P31749 whole entry S473D, looked up): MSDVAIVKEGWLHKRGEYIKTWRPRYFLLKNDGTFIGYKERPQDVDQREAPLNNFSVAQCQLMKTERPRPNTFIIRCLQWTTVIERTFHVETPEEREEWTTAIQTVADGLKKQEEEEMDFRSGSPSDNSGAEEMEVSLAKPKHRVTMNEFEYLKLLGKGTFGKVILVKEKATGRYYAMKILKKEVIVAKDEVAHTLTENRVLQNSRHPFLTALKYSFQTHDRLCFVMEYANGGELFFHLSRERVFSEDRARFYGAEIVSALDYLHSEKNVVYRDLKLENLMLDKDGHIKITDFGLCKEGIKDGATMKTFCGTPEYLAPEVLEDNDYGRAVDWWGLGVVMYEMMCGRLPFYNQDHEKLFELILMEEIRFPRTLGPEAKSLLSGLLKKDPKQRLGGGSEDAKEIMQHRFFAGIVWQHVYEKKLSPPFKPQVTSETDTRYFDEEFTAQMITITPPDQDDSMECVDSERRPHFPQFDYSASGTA

PKN2 (human) = PKN2 (human) (UniProt Q16513)
Sequence of PKN2 (human) (Q16513 whole entry, looked up): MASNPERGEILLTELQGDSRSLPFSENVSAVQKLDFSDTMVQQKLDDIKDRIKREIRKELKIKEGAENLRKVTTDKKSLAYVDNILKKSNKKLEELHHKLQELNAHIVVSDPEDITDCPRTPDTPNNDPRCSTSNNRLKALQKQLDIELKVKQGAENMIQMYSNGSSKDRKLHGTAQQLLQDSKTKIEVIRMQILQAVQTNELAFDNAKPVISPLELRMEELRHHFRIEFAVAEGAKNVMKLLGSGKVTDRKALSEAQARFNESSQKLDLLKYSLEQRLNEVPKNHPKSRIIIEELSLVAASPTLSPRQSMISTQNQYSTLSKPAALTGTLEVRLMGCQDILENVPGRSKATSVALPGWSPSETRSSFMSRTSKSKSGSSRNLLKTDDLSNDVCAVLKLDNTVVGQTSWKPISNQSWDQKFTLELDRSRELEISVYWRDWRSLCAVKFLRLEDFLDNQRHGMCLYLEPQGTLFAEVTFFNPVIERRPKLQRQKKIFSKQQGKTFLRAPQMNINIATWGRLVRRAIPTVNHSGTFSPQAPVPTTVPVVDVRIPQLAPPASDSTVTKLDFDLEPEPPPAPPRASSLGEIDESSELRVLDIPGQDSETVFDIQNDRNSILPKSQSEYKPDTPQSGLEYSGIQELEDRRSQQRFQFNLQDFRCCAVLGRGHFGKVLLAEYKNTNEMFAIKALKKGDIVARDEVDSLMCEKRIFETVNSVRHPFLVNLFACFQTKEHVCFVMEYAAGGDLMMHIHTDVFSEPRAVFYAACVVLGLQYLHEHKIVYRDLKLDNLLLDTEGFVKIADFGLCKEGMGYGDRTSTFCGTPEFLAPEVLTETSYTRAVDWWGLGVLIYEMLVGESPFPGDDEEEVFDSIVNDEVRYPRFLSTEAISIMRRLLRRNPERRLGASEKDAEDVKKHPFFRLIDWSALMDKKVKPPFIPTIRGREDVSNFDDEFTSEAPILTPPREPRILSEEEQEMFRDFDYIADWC

IRAK4 (human) = IRAK4 (human) (UniProt Q9NWZ3)
PHKG1 (human) = PHKG1 (human) (UniProt Q16816)
Sequence of PHKG1 (human) (Q16816 whole entry, looked up): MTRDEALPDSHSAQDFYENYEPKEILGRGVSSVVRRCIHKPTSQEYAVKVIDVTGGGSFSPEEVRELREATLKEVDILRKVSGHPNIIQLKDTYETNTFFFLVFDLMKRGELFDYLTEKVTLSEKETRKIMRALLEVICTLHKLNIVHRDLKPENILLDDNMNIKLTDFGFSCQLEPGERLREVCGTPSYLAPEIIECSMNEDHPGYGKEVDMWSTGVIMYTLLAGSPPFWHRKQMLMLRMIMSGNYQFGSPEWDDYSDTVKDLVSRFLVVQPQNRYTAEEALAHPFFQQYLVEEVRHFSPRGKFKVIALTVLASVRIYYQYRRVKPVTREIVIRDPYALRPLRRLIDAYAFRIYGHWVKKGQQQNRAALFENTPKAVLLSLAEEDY

MAPK11 (human) = MAPK11 (human) (UniProt Q15759); conditions: compound 1.0 µM
MAP3K9 (human) = MAP3K9 (human) (UniProt P80192)
NEK6 (human) = NEK6 (human) (UniProt Q9HC98)
Sequence of NEK6 (human) (Q9HC98 whole entry, looked up): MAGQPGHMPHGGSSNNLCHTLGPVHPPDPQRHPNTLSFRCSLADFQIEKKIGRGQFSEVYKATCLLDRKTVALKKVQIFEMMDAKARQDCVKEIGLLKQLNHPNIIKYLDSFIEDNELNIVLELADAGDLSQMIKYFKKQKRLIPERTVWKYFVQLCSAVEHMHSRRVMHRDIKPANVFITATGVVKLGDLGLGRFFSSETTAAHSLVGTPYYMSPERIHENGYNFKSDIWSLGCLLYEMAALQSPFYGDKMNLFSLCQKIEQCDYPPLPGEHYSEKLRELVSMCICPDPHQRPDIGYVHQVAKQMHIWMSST

MARK2 (human) = MARK2 (human) (UniProt Q7KZI7)
Sequence of MARK2 (human) (Q7KZI7 whole entry, looked up): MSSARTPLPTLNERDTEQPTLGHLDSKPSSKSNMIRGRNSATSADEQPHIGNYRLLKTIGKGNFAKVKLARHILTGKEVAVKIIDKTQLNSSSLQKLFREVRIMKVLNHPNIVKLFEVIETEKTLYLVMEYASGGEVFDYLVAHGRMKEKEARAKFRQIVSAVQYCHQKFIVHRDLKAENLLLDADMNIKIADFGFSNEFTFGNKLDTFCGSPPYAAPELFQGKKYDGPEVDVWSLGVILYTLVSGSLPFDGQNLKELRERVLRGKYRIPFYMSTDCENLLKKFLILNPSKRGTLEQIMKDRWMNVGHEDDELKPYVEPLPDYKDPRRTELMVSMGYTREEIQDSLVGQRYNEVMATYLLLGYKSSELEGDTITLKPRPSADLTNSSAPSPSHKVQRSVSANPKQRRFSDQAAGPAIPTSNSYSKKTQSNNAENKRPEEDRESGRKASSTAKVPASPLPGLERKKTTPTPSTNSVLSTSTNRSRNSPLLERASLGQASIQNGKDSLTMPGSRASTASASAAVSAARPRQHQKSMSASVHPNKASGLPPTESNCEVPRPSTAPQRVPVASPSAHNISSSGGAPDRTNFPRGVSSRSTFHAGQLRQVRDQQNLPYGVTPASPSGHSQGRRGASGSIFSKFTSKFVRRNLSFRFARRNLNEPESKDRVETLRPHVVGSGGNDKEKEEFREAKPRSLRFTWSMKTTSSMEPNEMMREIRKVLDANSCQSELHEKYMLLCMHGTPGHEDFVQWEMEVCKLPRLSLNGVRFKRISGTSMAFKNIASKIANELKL

TTK (human) = TTK (human) (UniProt P33981); conditions: compound 1.0 µM
INSRR (human) = INSRR (human) (UniProt P14616)
CSNK2A1 (human) = CSNK2A1 (human) (UniProt P68400)
Sequence of CSNK2A1 (human) (P68400 whole entry, looked up): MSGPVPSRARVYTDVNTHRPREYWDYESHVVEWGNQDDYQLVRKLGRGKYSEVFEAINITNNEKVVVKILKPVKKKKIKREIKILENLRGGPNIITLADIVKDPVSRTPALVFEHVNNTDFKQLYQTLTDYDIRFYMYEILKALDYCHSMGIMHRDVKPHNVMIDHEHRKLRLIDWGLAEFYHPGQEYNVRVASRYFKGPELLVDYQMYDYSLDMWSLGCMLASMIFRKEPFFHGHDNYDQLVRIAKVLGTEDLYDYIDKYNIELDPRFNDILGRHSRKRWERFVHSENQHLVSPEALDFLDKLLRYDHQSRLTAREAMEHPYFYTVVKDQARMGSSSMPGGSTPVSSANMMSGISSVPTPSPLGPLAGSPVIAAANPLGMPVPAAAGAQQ

MAP2K6 (human) = MAP2K6 (human) (UniProt P52564)
Sequence of MAP2K6 (human) (P52564 whole entry, looked up): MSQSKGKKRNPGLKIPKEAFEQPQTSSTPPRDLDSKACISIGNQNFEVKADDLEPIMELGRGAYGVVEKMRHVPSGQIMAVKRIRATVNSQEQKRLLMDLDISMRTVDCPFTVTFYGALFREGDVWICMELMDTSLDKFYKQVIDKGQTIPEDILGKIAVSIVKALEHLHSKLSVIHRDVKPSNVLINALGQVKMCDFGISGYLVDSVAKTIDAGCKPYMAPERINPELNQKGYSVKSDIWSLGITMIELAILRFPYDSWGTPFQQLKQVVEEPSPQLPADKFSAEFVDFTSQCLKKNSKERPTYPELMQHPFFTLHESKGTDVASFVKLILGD

PIM2 (human) = PIM2 (human) (UniProt Q9P1W9)
INSR (human) = INSR (human) (UniProt P06213)
EPHA2 (human) = EPHA2 (human) (UniProt P29317)
[3] = test system: RPS6KB1 (human), P23443 [T412E]
MYLK (human) = MYLK (human) (UniProt Q15746)
MKNK1 (human) = MKNK1 (human) (UniProt Q9BUB5)
Sequence of MKNK1 (human) (Q9BUB5 whole entry, looked up): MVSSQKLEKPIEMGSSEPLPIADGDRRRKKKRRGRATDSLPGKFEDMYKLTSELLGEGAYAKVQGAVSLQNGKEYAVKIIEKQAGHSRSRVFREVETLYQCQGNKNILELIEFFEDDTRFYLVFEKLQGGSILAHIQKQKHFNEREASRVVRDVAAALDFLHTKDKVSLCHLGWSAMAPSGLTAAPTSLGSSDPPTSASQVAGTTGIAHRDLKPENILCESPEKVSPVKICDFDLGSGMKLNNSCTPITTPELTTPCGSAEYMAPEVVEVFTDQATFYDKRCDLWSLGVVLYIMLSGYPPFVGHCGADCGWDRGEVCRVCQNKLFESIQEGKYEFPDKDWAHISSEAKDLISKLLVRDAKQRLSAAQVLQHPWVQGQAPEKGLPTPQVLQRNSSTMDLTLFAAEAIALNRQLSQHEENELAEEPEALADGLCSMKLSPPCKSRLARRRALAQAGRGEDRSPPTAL

MARK1 (human) = MARK1 (human) (UniProt Q9P0L2)
EPHB1 (human) = EPHB1 (human) (UniProt P54762)
SYK (human) = SYK (human) (UniProt P43405)
FGFR1 (human) = FGFR1 (human) (UniProt P11362)
[4] = test system: PAK2 (human), Q13177 [T402E]
LCK (mouse) = conditions: accession and sequence are those of the human protein
MAPK13 (human) = MAPK13 (human) (UniProt O15264)
MAP2K1 (human) = MAP2K1 (human) (UniProt Q02750)
SRPK1 (human) = SRPK1 (human) (UniProt Q96SB4)
[5] = target: STK11 CAB39 STRADA (human) (UniProt Q9Y376+Q7RTN6+Q15831)

Sequence of DYRK3 (human) (O43781 whole entry, looked up): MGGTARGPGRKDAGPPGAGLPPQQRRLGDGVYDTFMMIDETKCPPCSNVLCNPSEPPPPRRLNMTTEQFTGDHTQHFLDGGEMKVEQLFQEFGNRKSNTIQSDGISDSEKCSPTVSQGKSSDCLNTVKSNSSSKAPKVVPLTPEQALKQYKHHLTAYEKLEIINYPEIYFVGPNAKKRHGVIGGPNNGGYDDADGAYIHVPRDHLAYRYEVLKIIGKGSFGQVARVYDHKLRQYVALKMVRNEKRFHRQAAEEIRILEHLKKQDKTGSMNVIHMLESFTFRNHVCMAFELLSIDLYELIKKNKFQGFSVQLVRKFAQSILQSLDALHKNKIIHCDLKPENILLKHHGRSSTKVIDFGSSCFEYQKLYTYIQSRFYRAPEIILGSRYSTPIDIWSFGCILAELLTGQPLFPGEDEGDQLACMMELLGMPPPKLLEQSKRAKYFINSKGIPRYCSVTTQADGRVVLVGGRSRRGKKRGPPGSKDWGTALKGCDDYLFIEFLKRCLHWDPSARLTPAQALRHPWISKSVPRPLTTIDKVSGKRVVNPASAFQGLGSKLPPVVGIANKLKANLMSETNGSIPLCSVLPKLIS

COc1cc2ncn(-c3cc(OCc4ccccc4S(C)(=O)=O)c(C#N)s3)c2cc1OC
residual activity (NEK2 (human); compound 1.0 µM): 41%
residual activity (NEK2 (human); compound 10.0 µM): 39%
residual activity (MAPK10 (human); compound 1.0 µM): 99%
residual activity (MAPK10 (human); compound 10.0 µM): 77%
residual activity (TBK1 (human); compound 1.0 µM): 21%
residual activity (TBK1 (human); compound 10.0 µM): 17%
residual activity (GSK3B (human); compound 1.0 µM): 90%
residual activity (GSK3B (human); compound 10.0 µM): 68%
residual activity (PIM3 (human); compound 1.0 µM): 90%
residual activity (PIM3 (human); compound 10.0 µM): 73%
residual activity ([1]; compound 1.0 µM): 72%
residual activity ([1]; compound 10.0 µM): 98%
residual activity (DYRK3 (human); compound 1.0 µM): 75%
residual activity (DYRK3 (human); compound 10.0 µM): 82%
residual activity (ROCK2 (rat); compound 1.0 µM): 93%
residual activity (ROCK2 (rat); compound 10.0 µM): 61%
residual activity ([2]; compound 1.0 µM): 98%
residual activity ([2]; compound 10.0 µM): 85%
residual activity (PKN2 (human); compound 1.0 µM): 63%
residual activity (PKN2 (human); compound 10.0 µM): 64%
residual activity (IRAK4 (human); compound 1.0 µM): 13%
residual activity (IRAK4 (human); compound 10.0 µM): 6%
residual activity (PHKG1 (human); compound 1.0 µM): 5%
residual activity (PHKG1 (human); compound 10.0 µM): 4%
residual activity (MAPK11 (human)): 103%
residual activity (MAP3K9 (human); compound 1.0 µM): 28%
residual activity (MAP3K9 (human); compound 10.0 µM): 8%
residual activity (NEK6 (human); compound 1.0 µM): 93%
residual activity (NEK6 (human); compound 10.0 µM): 77%
residual activity (MARK2 (human); compound 1.0 µM): 39%
residual activity (MARK2 (human); compound 10.0 µM): 35%
residual activity (TTK (human)): 83%
residual activity (INSRR (human); compound 1.0 µM): 77%
residual activity (INSRR (human); compound 10.0 µM): 66%
residual activity (CSNK2A1 (human); compound 1.0 µM): 118%
residual activity (CSNK2A1 (human); compound 10.0 µM): 107%
residual activity (MAP2K6 (human); compound 1.0 µM): 91%
residual activity (MAP2K6 (human); compound 10.0 µM): 84%
residual activity (PIM2 (human); compound 1.0 µM): 93%
residual activity (PIM2 (human); compound 10.0 µM): 78%
residual activity (INSR (human); compound 1.0 µM): 104%
residual activity (INSR (human); compound 10.0 µM): 105%
residual activity (EPHA2 (human); compound 1.0 µM): 66%
residual activity (EPHA2 (human); compound 10.0 µM): 53%
residual activity ([3]; compound 1.0 µM): 87%
residual activity ([3]; compound 10.0 µM): 66%
residual activity (MYLK (human); compound 1.0 µM): 89%
residual activity (MYLK (human); compound 10.0 µM): 61%
residual activity (MKNK1 (human); compound 1.0 µM): 47%
residual activity (MKNK1 (human); compound 10.0 µM): 34%
residual activity (MARK1 (human); compound 1.0 µM): 33%
residual activity (MARK1 (human); compound 10.0 µM): 31%
residual activity (EPHB1 (human); compound 1.0 µM): 79%
residual activity (EPHB1 (human); compound 10.0 µM): 95%
residual activity (SYK (human); compound 1.0 µM): 95%
residual activity (SYK (human); compound 10.0 µM): 87%
residual activity (FGFR1 (human); compound 1.0 µM): 49%
residual activity (FGFR1 (human); compound 10.0 µM): 49%
residual activity ([4]; compound 1.0 µM): 94%
residual activity ([4]; compound 10.0 µM): 111%
residual activity (LCK (mouse); compound 1.0 µM): 35%
residual activity (LCK (mouse); compound 10.0 µM): 33%
residual activity (MAPK13 (human); compound 1.0 µM): 112%
residual activity (MAPK13 (human); compound 10.0 µM): 86%
residual activity (MAP2K1 (human); compound 1.0 µM): 78%
residual activity (MAP2K1 (human); compound 10.0 µM): 75%
residual activity (SRPK1 (human); compound 1.0 µM): 93%
residual activity (SRPK1 (human); compound 10.0 µM): 79%
residual activity ([5]; compound 1.0 µM): 80%
residual activity ([5]; compound 10.0 µM): 62%

From the kinase profiling compilation of Christmann-Franck et al. (2016)
